The text below walks through data of patent US11964938B2, “3-phenyl-4-hexynoic acid derivatives as GPR40 agonists” (CELON PHARMA S.A., priority 2018, dated 2024).

In one data set the target is T1, OAT1 (Homo sapiens, UniProt Q4U2R8).
T1 construct: host or cells: HEK293
T1 sequence (Q4U2R8 1-563): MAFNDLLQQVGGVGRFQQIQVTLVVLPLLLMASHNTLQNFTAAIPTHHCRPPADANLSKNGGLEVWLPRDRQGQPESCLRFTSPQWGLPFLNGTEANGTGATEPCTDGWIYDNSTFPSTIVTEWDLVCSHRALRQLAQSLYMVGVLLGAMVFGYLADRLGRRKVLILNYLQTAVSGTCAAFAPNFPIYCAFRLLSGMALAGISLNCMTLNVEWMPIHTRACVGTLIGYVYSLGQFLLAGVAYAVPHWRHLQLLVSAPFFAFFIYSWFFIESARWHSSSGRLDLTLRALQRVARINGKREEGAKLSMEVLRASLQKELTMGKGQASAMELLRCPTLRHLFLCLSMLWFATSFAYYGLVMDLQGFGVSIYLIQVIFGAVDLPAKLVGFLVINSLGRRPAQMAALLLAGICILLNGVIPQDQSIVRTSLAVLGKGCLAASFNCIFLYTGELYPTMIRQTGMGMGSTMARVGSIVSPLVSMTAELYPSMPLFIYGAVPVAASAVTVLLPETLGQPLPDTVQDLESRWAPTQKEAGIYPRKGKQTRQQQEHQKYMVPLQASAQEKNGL
Kind of data set: Uptake transporter inhibition assay, OAT1. It is filed as cell-based. The conditions noted are these: HEK293 cells overexpressing transporter. The procedure: (§1) Experiment B4: Bile Acid Transporters Inhibition in the Liver.
(§2) The compound was tested on a panel of 10 transporters: BSEP, MRP2, MRP3, MRP4 in a vesicular transport inhibition assay and NTCP, OAT1, OAT2v1, OATP1A2, OATP1B1, OATP1B3 in an uptake transporter inhibition assays.
(§3) Transporter uptake inhibition test was performed on mammal HEK293 cells overexpressing of a respective transporter. Cells were cultured at 37±1° C. and seeded on 96-well tissue culture plate at 1×10^5/well. Substrate was removed prior to experiment and cells were washed twice with 100 μl of respective buffer (HK pH 7.4 for OATP1B1 and HBSS pH 7.4 for NTCP, OAT1, OAT2v1, OATP1A2, and OATP1B3). Uptake studies were performed at 37±1° C. in 50 μl of respective buffer containing radioactively tagged substrate and tested compound or solvent.
(§4) After experiment cells were washed twice with 100 μl of ice-cold respective buffer and lysed with 50 μl of 0.1M NaOH. Transport of radioactively tagged substrate was determined by scintillation counter measurement.

The target in another data set is T2, MRP2 (Homo sapiens, UniProt Q92887).
T2 construct: host or cells: HEK293 (membrane vesicles)
T2 sequence (Q92887 whole entry): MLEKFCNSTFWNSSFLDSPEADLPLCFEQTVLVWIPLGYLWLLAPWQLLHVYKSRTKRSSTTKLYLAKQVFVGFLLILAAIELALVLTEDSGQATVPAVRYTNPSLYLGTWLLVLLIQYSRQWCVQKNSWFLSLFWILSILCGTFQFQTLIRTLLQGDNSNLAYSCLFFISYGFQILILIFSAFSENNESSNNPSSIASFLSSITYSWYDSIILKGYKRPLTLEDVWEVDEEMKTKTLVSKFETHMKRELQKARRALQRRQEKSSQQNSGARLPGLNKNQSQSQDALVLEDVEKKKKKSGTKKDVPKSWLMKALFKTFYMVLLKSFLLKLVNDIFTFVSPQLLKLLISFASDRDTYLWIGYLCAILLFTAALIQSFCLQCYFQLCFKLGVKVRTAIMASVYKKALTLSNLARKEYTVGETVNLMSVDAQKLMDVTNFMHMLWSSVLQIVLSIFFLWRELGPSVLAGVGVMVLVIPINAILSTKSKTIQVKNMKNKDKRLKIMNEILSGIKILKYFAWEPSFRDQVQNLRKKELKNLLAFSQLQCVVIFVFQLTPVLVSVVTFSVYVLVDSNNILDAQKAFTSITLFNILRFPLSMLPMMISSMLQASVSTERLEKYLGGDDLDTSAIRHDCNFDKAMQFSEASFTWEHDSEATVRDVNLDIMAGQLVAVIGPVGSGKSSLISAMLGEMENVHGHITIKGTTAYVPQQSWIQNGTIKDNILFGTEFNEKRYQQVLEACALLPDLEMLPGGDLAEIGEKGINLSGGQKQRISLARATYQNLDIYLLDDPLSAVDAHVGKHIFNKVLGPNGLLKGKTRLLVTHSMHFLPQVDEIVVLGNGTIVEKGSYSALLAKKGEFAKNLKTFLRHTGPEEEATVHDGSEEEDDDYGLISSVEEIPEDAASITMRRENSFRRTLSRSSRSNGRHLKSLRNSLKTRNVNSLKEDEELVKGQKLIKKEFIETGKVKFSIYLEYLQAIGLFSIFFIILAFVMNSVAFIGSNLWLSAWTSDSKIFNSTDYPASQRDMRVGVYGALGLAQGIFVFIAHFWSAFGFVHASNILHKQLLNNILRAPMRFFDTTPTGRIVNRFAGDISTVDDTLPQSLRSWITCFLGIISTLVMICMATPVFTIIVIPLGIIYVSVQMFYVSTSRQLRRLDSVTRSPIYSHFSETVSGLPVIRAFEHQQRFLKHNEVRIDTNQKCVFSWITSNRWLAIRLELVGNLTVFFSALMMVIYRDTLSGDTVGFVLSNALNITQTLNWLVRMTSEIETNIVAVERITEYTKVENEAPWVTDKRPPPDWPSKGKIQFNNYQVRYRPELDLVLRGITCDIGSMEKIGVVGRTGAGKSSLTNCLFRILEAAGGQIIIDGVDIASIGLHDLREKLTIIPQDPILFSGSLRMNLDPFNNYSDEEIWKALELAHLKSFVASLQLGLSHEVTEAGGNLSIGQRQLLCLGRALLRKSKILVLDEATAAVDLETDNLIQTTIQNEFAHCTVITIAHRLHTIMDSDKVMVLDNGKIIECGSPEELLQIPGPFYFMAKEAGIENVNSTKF
The experiment in a line: Vesicular transport inhibition assay, MRP2. It is filed as biochemical. The following applies: membrane vesicles from HEK293 cells. The procedure:
Experiment B4: Bile Acid Transporters Inhibition in the Liver. […] The compound was tested on a panel of 10 transporters: BSEP, MRP2, MRP3, MRP4 in a vesicular transport inhibition assay and NTCP, OAT1, OAT2v1, OATP1A2, OATP1B1, OATP1B3 in an uptake transporter inhibition assays. Vesicular transport inhibition assay was performed on membrane vesicles isolated from mammal HEK293 cells overexpressing human ABC transporters. Tested compound were incubated with vesicles and substrates for respective tested transporters. Incubation was performed in the presence of 4 mM ATP or AMP in order to differentiate between uptake by a transporter and passive diffusion into vesicles. In the case of MRP2 and MRP3, reactions were performed in the presence of 2 mM glutathione. Tested compounds were added to the reaction mixture dissolved in 0.75 μl of a solvent (1% of final incubation volume). Reaction mixtures were preincubated for 15 minutes at 37±1° C. Reactions were started by the addition of 25 μl of 12 mM MgATP (or 12 mM AMP) in test buffer, as a background control, separately preincubated.

The target of the next data set is T3, NTCP (Homo sapiens, UniProt Q14973).
T3 construct: host or cells: HEK293
T3 sequence (Q14973 1-349): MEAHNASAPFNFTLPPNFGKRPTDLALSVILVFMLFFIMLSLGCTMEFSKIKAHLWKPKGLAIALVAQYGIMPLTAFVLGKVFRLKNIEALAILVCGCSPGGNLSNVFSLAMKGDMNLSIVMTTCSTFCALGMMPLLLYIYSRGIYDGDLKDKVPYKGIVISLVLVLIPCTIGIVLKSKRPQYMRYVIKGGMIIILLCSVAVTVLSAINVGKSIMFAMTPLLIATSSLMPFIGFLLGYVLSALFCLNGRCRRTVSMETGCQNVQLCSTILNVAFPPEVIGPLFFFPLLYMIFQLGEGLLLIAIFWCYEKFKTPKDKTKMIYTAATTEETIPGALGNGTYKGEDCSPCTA
The experiment in a line: Uptake transporter inhibition assay, NTCP. It is filed as cell-based. The following applies: HEK293 cells overexpressing transporter. The procedure: as §1, §2, §3, §4

A further data set concerns the target T4, OAT2v1 (Homo sapiens, UniProt Q9Y694).
T4 construct: host or cells: HEK293
T4 sequence (Q9Y694 1-546 isoform Q9Y694-2): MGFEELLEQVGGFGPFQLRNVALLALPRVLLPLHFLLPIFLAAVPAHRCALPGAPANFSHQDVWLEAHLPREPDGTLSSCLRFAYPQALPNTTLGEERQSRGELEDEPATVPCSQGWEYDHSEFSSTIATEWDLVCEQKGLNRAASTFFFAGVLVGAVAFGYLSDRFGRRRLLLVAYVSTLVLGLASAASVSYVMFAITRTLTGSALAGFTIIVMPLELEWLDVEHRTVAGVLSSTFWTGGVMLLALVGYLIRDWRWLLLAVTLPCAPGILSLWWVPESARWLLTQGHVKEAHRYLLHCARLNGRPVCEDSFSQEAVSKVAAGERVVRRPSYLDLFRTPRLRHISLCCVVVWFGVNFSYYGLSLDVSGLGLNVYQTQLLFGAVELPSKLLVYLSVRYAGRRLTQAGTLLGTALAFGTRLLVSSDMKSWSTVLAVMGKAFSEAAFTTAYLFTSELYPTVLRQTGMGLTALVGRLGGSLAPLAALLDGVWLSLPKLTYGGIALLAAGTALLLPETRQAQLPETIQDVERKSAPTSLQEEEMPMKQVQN
Kind of data set: Uptake transporter inhibition assay, OAT2v1. It is filed as cell-based. The conditions noted are these: HEK293 cells overexpressing transporter. As for the experimental part: as §1, §2, §3, §4

Counter-ions that a name gives are not always drawn.

The term IC50 denotes the concentration that gives 50% inhibition. A lower IC50 goes with greater potency. With `CC#C[C@@H](CC(=O)O)c1ccc(OCC(C)=C(C)C)cc1` [Example S1, (3S)-3-{4-[(2,3-dimethylbut-2-en-1-yl)oxy]phenyl}hex-4-ynoic acid calcium salt], the IC50 was 245 µM against OAT1, over 100 µM at MRP2 (symbol per footnote), 46.8 µM at NTCP and over 300 µM on OAT2v1.

On to `Cc1cc(OCCCS(C)(=O)=O)cc(C)c1-c1cccc(COc2ccc3c(c2)OC[C@H]3CC(=O)O)c1` [Example R1, 2[(3S)-6-({3-[4-(3-methanesulfonylpropoxy)-2,6-dimethylphenyl]-phenyl}methoxy)-2,3-dihydro-1-benzofuran-3-yl]acetic acid, reference compound], for which the IC50 is 34.8 µM at OAT1, 48.1 µM on MRP2 (2 mM glutathione), 53.1 µM against NTCP and 62.8 µM against OAT2v1.
